How the values were obtained:
[1] = Inhibitory concentration against mannan binding relative to concanavalin A; Using QCM(quartz crystal microbalance) assay; NA= Not active
[2] = (§1) Inhibitory concentration against mannan binding relative to concanavalin A; Using QCM(quartz crystal microbalance) assay
[3] = as §1; remark: listed apart in the source

Row | Structure (SMILES) | IC50 [1] | IC50 [2] [µM] | other results
1 | COC1O[C@H](CSSCC2O[C@H](OC)C(O)[C@@H](O)[C@@H]2O)C(O)[C@@H](O)[C@@H]1O (stereo partly specified) | Not Active | – | –
2 | CO[C@H]1O[C@H](CO)[C@@H](O)[C@H](O)[C@@H]1O | – | 1100 | –
3 | OCC1O[C@H](S)C(O)[C@@H](O)[C@@H]1O (stereo partly specified) | – | – | Inhibition [3]: 10 mM
4 | CC(=O)NC1C(O)[C@@H](O)C(CO)O[C@H]1SS[C@@H]1OC(CO)[C@H](O)[C@@H](O)C1NC(C)=O (single isomer, unassigned) | Not Active | – | –
5 | CC(=O)NC1[C@@H](O)[C@H](O)C(CO)O[C@H]1SS[C@@H]1OC(CO)[C@@H](O)[C@@H](O)C1NC(C)=O (stereo in doubt) | – | 2000 | –
6 | OC[C@H]1OC(O)[C@@H](O)[C@@H](O)[C@@H]1O (stereo partly drawn) [D-MANNOSE] | – | 5300 | –
